Test results taken from patent publication US20110281945A1, “GASTRIC ACID SECRETION INHIBITOR, AND POTASSIUM CHANNEL INHIBITOR” (priority 2009, published 2011).

Columns and labels:
Cl^− secretion = assay: Short-circuit current (Isc) measurement with Ussing chambers, large-intestinal (cecum) mucosa specimen; type: cell-based, mouse
From the text: A mouse was killed by cervical vertebra dislocation. After abdominal incision, the cecum was extracted. The boundary parts of the cecum with the small intestine and the large intestine were cut to extract the cecum. The cecum was cut open with scissors into a sheet. In order to completely remove the contents, the cecum was pinched with tweezers and washed with replacement fluid. Replacement fluid was placed in a petri dish covered with rubber, and the cecum was attached thereon with the serosa side up. The muscular layer was separated using tweezers while constantly aerating the replacement fluid in the petri dish with 95% O2/5% CO2 to prepare a specimen composed of the mucosa and the submucosa. This specimen was divided into four pieces for use in the experiment.
The mucosa specimen was placed between two Ussing-type chambers each having a window with an area of 0.2 cm^2 and containing 5 mL of replacement fluid. For the measurement of the electrical potential difference, a pair of calomel electrodes was connected to both chambers through 1 M KCl/2% agar salt bridges. For energization, Ag/AgCl electrodes connected through 1 M NaCl/2% agar salt bridges were installed. These electrodes were connected to a voltage clamp apparatus, and the short-circuit current (Isc) was measured. As for Isc, current flowing from the mucosa side to the serosa side was determined as being positive.
Tetrodotoxin (TTX) was administered to the serosa side to block the nerve, and then forskolin (FK) was administered to the serosa side. […] At least part of this cAMP-dependent increase in Isc is attributable to the activation of a Cl^− secretion mechanism.
Subsequently, the compound 1 was administered to the serosa side to decrease Isc (to suppress Cl^− secretion). […] Lastly, a Na^+.K^−.2Cl cotransporter inhibitor (which inhibits Cl^− secretion) was administered to the serosa side to observe a slight decrease in Isc.

gastric acid secretion = assay: Gastric acid secretion measurement with Ussing chambers, stomach specimen stimulated with histamine; type: cell-based, mouse; conditions: for suppression of the gastric acid secretion rate: versus ground state; for Gastric acid secretion rate: histamine 1 mM on serosa side, 37° C.
Method: A mouse was killed by cervical vertebra dislocation. After abdominal incision, the stomach was extracted. The gastric acid secretion portion was cut out, washed with replacement fluid, and divided into two pieces.
The specimen was placed between two chambers facing each other and each having a window with an area of 0.2 cm^2 and containing 10 mL of replacement fluid. Decreases in pH of the replacement fluid in the chamber on the lumen side were successively measured using a pH electrode at 37° C. The gastric acid secretion rate was calculated from the decrease in pH measured after completion of the experiment and the previously measured buffer capacity of the replacement fluid. The experiment was conducted by previously administering histamine (1 mM) to the replacement fluid on the serosa side for stimulating gastric acid secretion.
L-Menthol and compound 1 were administered to the replacement fluid on the lumen side so that the final concentrations were 50 μM and 100 μM, respectively. The administration was performed using stock solutions each having a concentration of 1000 times that of the target final concentration and using DMSO as a solvent. Compound 1 and 1-menthol were administered at 20 minutes and at 14 minutes, respectively, from the start of the experiment.

CCS(=O)(=O)N(C)[C@H]1c2cc(C#N)ccc2OC(C)(C)[C@@H]1O (racemic) [chromanol 293B]
Isc-suppressing reaction (Cl^− secretion; chromanol 293B administered first, before compound 1 (Example 2, FIG. 4)): can be observed

CC1CCC(C(C)C)C(OCC(C)(O)CO)C1 (stereo not shown) [Compound 1, 2-methyl-3-(menthoxy)propane-1,2-diol]
suppression of the gastric acid secretion rate (gastric acid secretion; 100 μM): 75% | Gastric acid secretion rate (gastric acid secretion; Example 4, 100 μM on lumen side): 0.43 micro Eq/cm^2/h | change in Isc (Cl^− secretion) (Cl^− secretion; administered to serosa side after TTX and forskolin (Example 1, FIG. 3)): decrease Isc

CC(C)[C@@H]1CC[C@@H](C)C[C@H]1O [l-Menthol]
suppression of the gastric acid secretion rate (gastric acid secretion; 50 μM): 57% | Gastric acid secretion rate (gastric acid secretion; Example 5, 50 μM on lumen side): 0.64 micro Eq/cm^2/h | decrease in Isc (Cl^− secretion; chromanol 293B administered in advance (Examples 2 and 3, FIG. 4 and 5)): did not decrease the Isc
